In the NIST ThermoML archive (doi:10.1021/je501054c):
Values joined by “and” are separate entries in the source; they are usually repeats but may differ in a detail not shown here. Equal entries are not always repeated. Numbers after ± are expanded uncertainties.

Assay: mn = molality of the nth substance listed, in mol/kg
Conditions: 100 kPa, Liquid; for viscosity: Capillary tube (Ostwald / Ubbelohde) method; for mass density: Vibrating tube method

For `C(=NCCN=Cc1ccccn1)c1ccccn1` [N,N'-bis(2-pyridinylmethylene)-1,2-ethanediamine] + CC#N, the viscosity (298.15 K, m1 = 0.0396) was 0.3511 ± 0.0074 mPa·s, the viscosity (298.15 K, m1 = 0.0397) was 0.359 ± 0.0076 mPa·s and the viscosity (298.15 K, m1 = 0.0412) was 0.352 ± 0.0075 mPa·s and 0.368 ± 0.0078 mPa·s. The viscosity (298.15 K, m1 = 0.0707) was 0.372 ± 0.0079 mPa·s, the viscosity (298.15 K, m1 = 0.076) was 0.3695 ± 0.0078 mPa·s and the viscosity (298.15 K, m1 = 0.0794) was 0.367 ± 0.0078 mPa·s. The viscosity (298.15 K, m1 = 0.085) was 0.357 ± 0.0076 mPa·s, the viscosity (298.15 K, m1 = 0.1109) was 0.381 ± 0.0081 mPa·s and the viscosity (298.15 K, m1 = 0.1136) was 0.368 ± 0.0078 mPa·s. For the same compound, the viscosity (298.15 K, m1 = 0.1159) was 0.374 ± 0.0079 mPa·s, the viscosity (298.15 K, m1 = 0.1172) was 0.374 ± 0.0079 mPa·s and the viscosity (298.15 K, m1 = 0.1441) was 0.397 ± 0.0084 mPa·s. For the same compound, the viscosity (298.15 K, m1 = 0.1487) was 0.395 ± 0.0083 mPa·s, the viscosity (298.15 K, m1 = 0.1539) was 0.381 ± 0.0081 mPa·s and the viscosity (298.15 K, m1 = 0.1655) was 0.375 ± 0.0079 mPa·s. For the same compound, the mass density (298.15 K, m1 = 0.0397) was 778.8 ± 3.9 kg/m3, the mass density (298.15 K, m1 = 0.0412) was 778.98 ± 3.9 kg/m3 and 778.99 ± 3.9 kg/m3 and the mass density (298.15 K, m1 = 0.0707) was 781 ± 3.9 kg/m3. For the same compound, the mass density (298.15 K, m1 = 0.076) was 781.24 ± 3.9 kg/m3, the mass density (298.15 K, m1 = 0.0794) was 781.36 ± 3.9 kg/m3 and the mass density (298.15 K, m1 = 0.085) was 781.2 ± 3.9 kg/m3. The mass density (298.15 K, m1 = 0.1109) was 783.49 ± 3.9 kg/m3, the mass density (298.15 K, m1 = 0.1136) was 783.49 ± 3.9 kg/m3 and the mass density (298.15 K, m1 = 0.1159) was 783.49 ± 3.9 kg/m3. It also gave a mass density (298.15 K, m1 = 0.1172) of 783.63 ± 3.9 kg/m3, a mass density (298.15 K, m1 = 0.1441) of 785.8 ± 3.9 kg/m3 and a mass density (298.15 K, m1 = 0.1487) of 786.71 ± 3.9 kg/m3. It also gave a mass density (298.15 K, m1 = 0.1539) of 785.86 ± 3.9 kg/m3, a mass density (298.15 K, m1 = 0.1655) of 785.87 ± 3.9 kg/m3 and a mass density (298.15 K, m1 = 0.396) of 779.08 ± 3.9 kg/m3. For the same compound, the mass density (303.15 K, m1 = 0.0397) was 770.6 ± 3.9 kg/m3, the mass density (303.15 K, m1 = 0.0412) was 773.9 ± 3.9 kg/m3 and 773.55 ± 3.9 kg/m3 and the mass density (303.15 K, m1 = 0.0707) was 775.97 ± 3.9 kg/m3. It also gave a mass density (303.15 K, m1 = 0.076) of 772.52 ± 3.9 kg/m3, a mass density (303.15 K, m1 = 0.0794) of 775.79 ± 3.9 kg/m3 and a mass density (303.15 K, m1 = 0.085) of 776.45 ± 3.9 kg/m3. For the same compound, the mass density (303.15 K, m1 = 0.1109) was 778.35 ± 3.9 kg/m3, the mass density (303.15 K, m1 = 0.1136) was 778.33 ± 3.9 kg/m3 and the mass density (303.15 K, m1 = 0.1159) was 775.25 ± 3.9 kg/m3. The mass density (303.15 K, m1 = 0.1172) was 777.74 ± 3.9 kg/m3, the mass density (303.15 K, m1 = 0.1441) was 780.11 ± 3.9 kg/m3 and the mass density (303.15 K, m1 = 0.1487) was 778.7 ± 3.9 kg/m3. For the same compound, the mass density (303.15 K, m1 = 0.1539) was 780.33 ± 3.9 kg/m3, the mass density (303.15 K, m1 = 0.1655) was 780.09 ± 3.9 kg/m3 and the mass density (303.15 K, m1 = 0.396) was 773.62 ± 3.9 kg/m3. For the same compound, the mass density (308.15 K, m1 = 0.0397) was 762.7 ± 3.8 kg/m3, the mass density (308.15 K, m1 = 0.0412) was 765.55 ± 3.8 kg/m3 and 766.66 ± 3.8 kg/m3 and the mass density (308.15 K, m1 = 0.0707) was 767.82 ± 3.8 kg/m3. The mass density (308.15 K, m1 = 0.076) was 764.1 ± 3.8 kg/m3, the mass density (308.15 K, m1 = 0.0794) was 769.83 ± 3.9 kg/m3 and the mass density (308.15 K, m1 = 0.085) was 769.8 ± 3.9 kg/m3. It also gave a mass density (308.15 K, m1 = 0.1109) of 771.54 ± 3.9 kg/m3, a mass density (308.15 K, m1 = 0.1136) of 771.48 ± 3.9 kg/m3 and a mass density (308.15 K, m1 = 0.1159) of 767.32 ± 3.8 kg/m3. For the same compound, the mass density (308.15 K, m1 = 0.1172) was 772.75 ± 3.9 kg/m3, the mass density (308.15 K, m1 = 0.1441) was 774.3 ± 3.9 kg/m3 and the mass density (308.15 K, m1 = 0.1487) was 769.46 ± 3.9 kg/m3. For the same compound, the mass density (308.15 K, m1 = 0.1539) was 775.54 ± 3.9 kg/m3, the mass density (308.15 K, m1 = 0.1655) was 774.28 ± 3.9 kg/m3 and the mass density (308.15 K, m1 = 0.396) was 766.62 ± 3.8 kg/m3. The mass density (313.15 K, m1 = 0.0397) was 754.02 ± 3.8 kg/m3, the mass density (313.15 K, m1 = 0.0412) was 759.53 ± 3.8 kg/m3 and 758.9 ± 3.8 kg/m3 and the mass density (313.15 K, m1 = 0.0707) was 761.2 ± 3.8 kg/m3. For the same compound, the mass density (313.15 K, m1 = 0.076) was 756.48 ± 3.8 kg/m3, the mass density (313.15 K, m1 = 0.0794) was 761.42 ± 3.8 kg/m3 and the mass density (313.15 K, m1 = 0.085) was 762.5 ± 3.8 kg/m3. For the same compound, the mass density (313.15 K, m1 = 0.1109) was 764.87 ± 3.8 kg/m3, the mass density (313.15 K, m1 = 0.1136) was 764.85 ± 3.8 kg/m3 and the mass density (313.15 K, m1 = 0.1159) was 759.62 ± 3.8 kg/m3. The mass density (313.15 K, m1 = 0.1172) was 767.66 ± 3.8 kg/m3, the mass density (313.15 K, m1 = 0.1441) was 767.8 ± 3.8 kg/m3 and the mass density (313.15 K, m1 = 0.1487) was 761.79 ± 3.8 kg/m3. It also gave a mass density (313.15 K, m1 = 0.1539) of 770.79 ± 3.9 kg/m3, a mass density (313.15 K, m1 = 0.1655) of 767.87 ± 3.8 kg/m3 and a mass density (313.15 K, m1 = 0.396) of 760.23 ± 3.8 kg/m3.
